This is an account of results in patent US10300044B2, “Polymorphic forms of methyl((1S)-1-(((2S)-2-(5-(4′-(2-((2S)-1-((2S)-2-((methoxycarbonyl)amino)-3-methylbutanoyl)-2-pyrrolidinyl)-1H-imidazol-5-yl)-4-biphenylyl)-1H-imidazol-2-yl)-1-pyrrolidinyl)carbonyl)-2-methylpropyl)carbamate and salts thereof” (Cipla Limited, priority 2014, dated 2019).

Structures can show the parent of a compound that is named as a salt.

One data set is described as follows: Hygroscopicity. The class given is physicochemical.
The conditions of data set [1]: N-1 versus N-2 crystalline dihydrochloride salts; cited from earlier work.

Take `COC(=O)N[C@H](C(=O)N1CCC[C@H]1c1ncc(-c2ccc(-c3ccc(-c4cnc([C@@H]5CCCN5C(=O)[C@@H](NC(=O)OC)C(C)C)[nH]4)cc3)cc2)[nH]1)C(C)C` [Form A, methyl((1 S)-1-(((2S)-2-(5-(4′-(2-((2S)-1-((2S)-2-((methoxycarbonyl)amino)-3-methylbutanoyl)-2-pyrrolidinyl)-1H-imidazol-5-yl)-4-biphenylyl)-1H-imidazol-2-yl)-1-pyrrolidinyl)carbonyl)-2-methylpropyl)carbamate]: the hygroscopicity result in the data set “Hygroscopicity” is recorded as “substantially non-hygroscopic”.

On to `COC(=O)N[C@H](C(=O)N1CCC[C@H]1c1nc(-c2ccc(-c3ccc(-c4c[nH]c([C@@H]5CCCN5C(=O)[C@@H](NC(=O)OC)C(C)C)n4)cc3)cc2)c[nH]1)C(C)C` [Form N-2, methyl((1S)-1-(((2S)-2-(5-(4′-(2-((2S)-1-((2S)-2-((methoxycarbonyl)amino)-3-methylbutanoyl)-2-pyrrolidinyl)-1H-imidazol-5-yl)-4-biphenylyl)-1H-imidazol-2-yl)-1-pyrrolidinyl)carbonyl)-2-methylpropyl) carbamate dihydrochloride], for which the “thermodynamic stability among polymorphs” value in data set [1] is given as “thermodynamically most stable polymorph”.
